From paper PMC8285539, “Tetrasubstituted imidazoles as incognito Toll-like receptor 8 a(nta)gonists” (Nature Communications, 2021) come the findings set out here.

The target in the assay is T1, TLR8 (Homo sapiens, UniProt Q9NR97).
T1 sequence (Q9NR97 27-827): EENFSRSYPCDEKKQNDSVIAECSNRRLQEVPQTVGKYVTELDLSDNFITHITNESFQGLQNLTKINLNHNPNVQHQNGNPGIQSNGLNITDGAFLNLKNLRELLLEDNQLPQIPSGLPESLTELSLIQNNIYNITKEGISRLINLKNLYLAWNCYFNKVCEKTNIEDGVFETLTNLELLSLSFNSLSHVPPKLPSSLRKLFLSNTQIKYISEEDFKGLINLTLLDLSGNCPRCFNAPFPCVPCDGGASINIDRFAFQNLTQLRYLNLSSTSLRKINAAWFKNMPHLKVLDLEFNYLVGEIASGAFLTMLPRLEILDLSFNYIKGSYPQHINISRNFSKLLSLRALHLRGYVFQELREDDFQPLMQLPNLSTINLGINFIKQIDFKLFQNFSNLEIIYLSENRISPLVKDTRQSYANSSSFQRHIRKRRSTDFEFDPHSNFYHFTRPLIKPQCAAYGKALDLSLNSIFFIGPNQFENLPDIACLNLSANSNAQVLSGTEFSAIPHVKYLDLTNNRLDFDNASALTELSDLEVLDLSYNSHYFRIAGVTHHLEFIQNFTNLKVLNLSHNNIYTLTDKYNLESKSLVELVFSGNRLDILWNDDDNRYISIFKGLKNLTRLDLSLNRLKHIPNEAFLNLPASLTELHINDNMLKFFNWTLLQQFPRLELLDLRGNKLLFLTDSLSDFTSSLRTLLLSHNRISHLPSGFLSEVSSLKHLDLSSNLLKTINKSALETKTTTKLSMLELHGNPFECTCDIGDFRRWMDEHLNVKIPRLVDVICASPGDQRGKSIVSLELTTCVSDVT
The experiment in a line: ITC. The format is binding.

SMILES strings stand for the structures. pKd: −log10 of the molar value.

`O=c1ccn([C@@H]2O[C@H](CO)[C@@H](O)[C@H]2O)c(=O)[nH]1` [uridine] had a pKd of 4.92.
